Test results taken from US11109593B2, “Isoxazolin-5-one derivative and herbicide containing same as active ingredient” (HOKKO CHEMICAL INDUSTRY CO., LTD., priority 2017, dated 2021).

Tests used:
Format in all cases: in vivo
Amaranthus viridis [1] = assay: Test Example 3: herbicidal effect test by treatment of dry field farming soil (one day after seeding); conditions: 120 g/10a active ingredient, evaluated 14 days after treatment
In short: (§1)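 Herbicidal rate (%) = {1 − treated/untreated mean plant dry weight} × 100, scored 14 days after spraying, duplicate pots per concentration. Emulsified compound was water-diluted and applied to soil surface one day post-seeding at 120 g a.i. per 10 ares.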

Chenopodium album [2] = assay: as above; conditions: 120 g/10a active ingredient, evaluated 14 days after treatment
In short: as §1

Echinochloa crus-galli [3] = assay: as above; conditions: 120 g/10a active ingredient, evaluated 14 days after treatment
In short: as §1

southern crabgrass [4] = assay: as above; conditions: 120 g/10a active ingredient, evaluated 14 days after treatment
In short: as §1

Amaranthus viridis [5] = assay: Test Example 4: herbicidal effect test by treatment of leave and stem in dry field farming (seven days after seeding); conditions: 120 g/10a active ingredient; emulsion sprayed seven days after seeding; evaluated 14 days after treatment
Procedure: (§2) This test was conducted in a double system per one agent solution concentration area, and the herbicidal rates (%) were determined by the following equation (Math. 1) on 14 days after the treatment with the agents. Herbicidal Rate (%)={1-(Average Dry Weight (g) of Plant of Treated Area)/(Average Dry Weight (g) of Plant of Untreated Area)}×100 [Math. 1]
(§3) Herbicidal Effect Test by Treatment of Leave and Stem in Dry Field Farming
(§4) Pots with a size of 36 cm^2 were filled with a dry field farming soil (alluvium). The soil of the top layer of 1 cm and seeds of weeds, namely southern crabgrass, Echinochloa crus-galli, Chenopodium album and Amaranthus viridis, 20 seeds each, were evenly mixed, and the top layer was gently pressed. Emulsions prepared using the compounds in Table 6 below according to Formulation Example 5 were diluted with water seven days after seeding, and the water-diluted agent solutions were sprayed to the soil surfaces at a ratio of 100 liters per 10 ares. The converted amount of the applied active ingredient corresponded to 120 g per 10 ares. The herbicidal effects were evaluated by the same standard as that in Test Example 1 on 14 days after the treatment with the agents. […] The compound numbers in Table 6 are the same as those in Table 1 and Table 2 above.

Chenopodium album [6] = assay: as above; conditions: 120 g/10a active ingredient; emulsion sprayed seven days after seeding; evaluated 14 days after treatment
Procedure: as §2, §3, §4

Echinochloa crus-galli [7] = assay: as above; conditions: 120 g/10a active ingredient; emulsion sprayed seven days after seeding; evaluated 14 days after treatment
Procedure: as §2, §3, §4

southern crabgrass [8] = assay: as above; conditions: 120 g/10a active ingredient; emulsion sprayed seven days after seeding; evaluated 14 days after treatment
Procedure: as §2, §3, §4

[9] = system: broad leaf weeds (Lindernia pyxidaria and Monochoria vaginalis); assay: Test Example 2: herbicidal effect test by treatment during growing period in paddy rice cultivation (seven days after seeding); conditions: 120 g/10a active ingredient, assessed 14 days after treatment, dry weight vs untreated area
In short: (§5)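 Emulsion formulations, diluted in water, applied dropwise to flooded pots (about 3 cm water) 7 days post-seeding at 120 g a.i./10 ares. Weeds sown 30 seeds each, 0–1 cm deep in puddled paddy soil; greenhouse. Readout: % reduction in plant dry weight vs untreated, day 14, duplicates.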

Echinochloa crus-galli [10] = assay: as above; conditions: 120 g/10a active ingredient, assessed 14 days after treatment, dry weight vs untreated area
In short: as §5

Scirpus juncoides [11] = assay: as above; conditions: 120 g/10a active ingredient, assessed 14 days after treatment, dry weight vs untreated area
In short: as §5

[12] = system: broad leaf weeds (Lindernia pyxidaria and Monochoria vaginalis); assay: Test Example 1: herbicidal effect test by treatment of rice paddy soil (immediately after seeding); conditions: 120 g/10a active ingredient, dry weight vs untreated area, 14 days after treatment
In short: (§6)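 Pre-emergence paddy water application, 120 g a.i./10 ares, applied immediately post-seeding into ~3 cm flood; glasshouse; duplicate pots; dry weight at 14 d → % inhibition = (1 − treated/untreated) × 100.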

Echinochloa crus-galli [13] = assay: as above; conditions: 120 g/10a active ingredient, dry weight vs untreated area, 14 days after treatment
In short: as §6

Scirpus juncoides [14] = assay: as above; conditions: 120 g/10a active ingredient, dry weight vs untreated area, 14 days after treatment
In short: as §6

Row | Compound | herbicidal rate, Amaranthus viridis (Amaranthus viridis [1]) [%] | herbicidal rate, Chenopodium album (Chenopodium album [2]) [%] | herbicidal rate, Echinochloa crus-galli (Echinochloa crus-galli [3]) [%] | herbicidal rate, southern crabgrass (southern crabgrass [4]) [%] | herbicidal effect (herbicidal rate), Amaranthus viridis (Amaranthus viridis [5]) [%] | herbicidal effect (herbicidal rate), Chenopodium album (Chenopodium album [6]) [%] | herbicidal effect (herbicidal rate), Echinochloa crus-galli (Echinochloa crus-galli [7]) [%] | herbicidal effect (herbicidal rate), southern crabgrass (southern crabgrass [8]) [%] | Herbicidal rate (%) Lindernia pyxidaria [9] [%] | Herbicidal rate (%) Monochoria vaginalis [9] [%] | Herbicidal rate (%) Echinochloa crus-galli (Echinochloa crus-galli [10]) [%] | Herbicidal rate (%) Scirpus juncoides (Scirpus juncoides [11]) [%] | Herbicidal rate (%) Lindernia pyxidaria [12] [%] | Herbicidal rate (%) Monochoria vaginalis [12] [%] | Herbicidal rate (%) Echinochloa crus-galli (Echinochloa crus-galli [13]) [%] | Herbicidal rate (%) Scirpus juncoides (Scirpus juncoides [14]) [%]
1 | COCC(C)n1oc(=O)c(Cc2ccccc2N(C(=O)C2CCCCC2)S(=O)(=O)C(F)(F)F)c1C (stereo not drawn) [Compound 1-434] | 90 | 90 | 90 | 90 | 40 | 40 | 90 | 90 | 90 | 90 | 90 | 90 | 90 | 90 | 90 | 90
2 | COC(=O)N(c1ccccc1Cc1c(C)n(C(C)(C)C)oc1=O)S(=O)(=O)C(F)(F)F [Compound 1-576] | 90 | 90 | 90 | 90 | 40 | 40 | 90 | 90 | 90 | 90 | 90 | 90 | 90 | 90 | 90 | 90
3 | Cc1c(Cc2ccccc2N(S(=O)(=O)C(F)(F)F)S(=O)(=O)C(F)(F)F)c(=O)on1C(C)C1CC1 (stereo not drawn) [Compound 1-992] | 40 | 40 | 90 | 90 | 40 | 40 | 90 | 50 | 50 | 90 | 90 | 80 | 90 | 100 | 100 | 100
4 | Cc1c(Cc2cc(Cl)ccc2NS(=O)(=O)C(F)(F)F)c(=O)on1C(C)C [Compound 1-41] | 0 | 50 | 90 | 90 | 60 | 90 | 90 | 90 | 90 | 80 | 90 | 60 | 100 | 100 | 100 | 100
5 | Cc1c(Cc2ccccc2N(S(=O)(=O)C(F)(F)F)S(=O)(=O)C(F)(F)F)c(=O)on1Cc1ccc(F)cc1 [Compound 1-1014] | 40 | 40 | 90 | 70 | 40 | 50 | 70 | 40 | 80 | 80 | 90 | 90 | 90 | 100 | 90 | 90
6 | Cc1c(Cc2ccc(Cl)cc2NS(=O)(=O)C(F)(F)F)c(=O)on1C(C)C [Compound 1-37] | 0 | 40 | 70 | 40 | 40 | 80 | 90 | 40 | 40 | 40 | 40 | 0 | 80 | 40 | 60 | 90
7 | Cc1c(Cc2ccccc2N(S(=O)(=O)C(F)(F)F)S(=O)(=O)C(F)(F)F)c(=O)on1CC[S+](C)[O-] (stereo not drawn) [Compound 1-1005] | 40 | 40 | 60 | 40 | 40 | 40 | 60 | 40 | 70 | 90 | 90 | 90 | 60 | 70 | 90 | 90
8 | Cc1c(Cc2ccccc2N(C(=O)OCc2ccccc2)S(=O)(=O)C(F)(F)F)c(=O)on1C(C)c1ccccc1 (stereo not drawn) [Compound 1-796] | 90 | 90 | 90 | 90 | 40 | 40 | 90 | 90 | 90 | 90 | 90 | 90 | 90 | 90 | 90 | 90
9 | COCC(C)n1oc(=O)c(Cc2ccccc2N(C(=O)Oc2ccccc2)S(=O)(=O)C(F)(F)F)c1C (stereo not drawn) [Compound 1-765] | 90 | 90 | 90 | 90 | 40 | 40 | 90 | 90 | 90 | 90 | 90 | 90 | 90 | 90 | 90 | 90
